Source: patent US20080096905A1, “Process For Preparing Pyrido[2,3-D]Pyrimidin-7-One And 3,4-Dihydropyrimido{4,5-D}Pyrimidin-2(1H)-One Derivatives” (Glaxo Group Limited, priority 2005, published 2008)

Structure (SMILES)	melting point [°C]
Cc1c(F)cc(C(=O)NC2CC2)cc1-c1nc(NC(CO)CO)nc2c1ccc(=O)n2-c1c(F)cccc1F [Example 49, N-cyclopropyl-3-(8-(2,6-difluorophenyl)-2-{[2-hydroxy-1-(hydroxymethyl)ethyl]amino}-7-oxo-7,8-dihydropyrido[2,3-d]pyrimidin-4-yl)-5-fluoro-4-methylbenzamide]	214.2 to 217.5
CSc1nc(-c2cc(C(=O)N(C)C)ccc2C)c2c(n1)N(c1c(F)cccc1F)C(=O)NC2 [Example 73, 3-[8-(2,6-difluorophenyl)-2-(methylthio)-7-oxo-5,6,7,8-tetrahydropyrimido[4,5-d]pyrimidin-4-yl]-N,N,4-trimethylbenzamide]	144 to 147
